In test [1] the test system is platelet aggregation by ADP stimulation. Particulars: clopidogrel 10 mg/kg oral, ketoconazole 50 mg/kg oral 30 min before, blood 2 hours after clopidogrel. From the text: Fasted rats (7 weeks old, female, SD rats) were used as experimental animals.
A further test concerns gastric acid secretion. Put plainly: Correlation between enzyme activity of CYP2C19 and CYP3A4 and effect of omeprazole, 13C-CaCO3 expiration test. The format is in vivo, rats. Particulars: ketoconazole 50 mg/kg oral 30 min before omeprazole 3 mg/kg i.v.; 13C-CaCO3 100 μmol/kg oral 2 hours after omeprazole. The protocol: Fasted rats (7 weeks old, female, SD rats) were used as experimental animals. The rats were divided into an omeprazole administration group (n=3), a ketoconazole pre-treatment group (n=3), and a control group (n=3).
Expired air was then collected. […] Expired air was then collected.
The above expired air was used as test samples, and Δ^13C (‰) was measured with a mass spectrometer for expired air analysis (ABCA: manufactured by SerCon) from the concentration of ^13CO2 excreted in the expired air.

Consider `COC(=O)[C@H](c1ccccc1Cl)N1CCc2sccc2C1` [clopidogrel], for which the “platelet aggregation inhibitory action of clopidogrel under ketoconazole pre-treatment” value in test [1] is reported as “reduced”.
On to `CC(=O)N1CCN(c2ccc(OCC3COC(Cn4ccnc4)(c4ccc(Cl)cc4Cl)O3)cc2)CC1` (centres unmarked) [ketoconazole], for which the “Δ13C (‰) in the expired air after 13C-CaCO3, effect of ketoconazole pre-treatment before omeprazole” value in the test on gastric acid secretion is given as “decreased”.

The values are drawn from US20180003695A1, “METHOD FOR QUANTITATIVE MEASUREMENT OF GASTRIC ACIDITY USING 13C CARBONATE SALT” (priority 2010, published 2018).
